What was measured:
Bombyx mori EcR (VBE) = biological target: T1, Bombyx mori EcR (VBE) (Bombyx mori, UniProt P49881); assay: Z3 assay: β-galactosidase reporter gene induction in HEK-293 clone Z3 (CVBE / 6XEcRE LacZ); format: cell-based; conditions: 33 μM ligand, 48 h, RLU relative to DMSO; for fold induction at 33 µM: HEK293, read-out: Fold Induction Average, Z3 assay
T1 construct: expressed in transfected cells; host or cells: Human HEK-293 cells, retrovirally infected, clone Z3
T1 sequence (P49881 86-606 limits assumed): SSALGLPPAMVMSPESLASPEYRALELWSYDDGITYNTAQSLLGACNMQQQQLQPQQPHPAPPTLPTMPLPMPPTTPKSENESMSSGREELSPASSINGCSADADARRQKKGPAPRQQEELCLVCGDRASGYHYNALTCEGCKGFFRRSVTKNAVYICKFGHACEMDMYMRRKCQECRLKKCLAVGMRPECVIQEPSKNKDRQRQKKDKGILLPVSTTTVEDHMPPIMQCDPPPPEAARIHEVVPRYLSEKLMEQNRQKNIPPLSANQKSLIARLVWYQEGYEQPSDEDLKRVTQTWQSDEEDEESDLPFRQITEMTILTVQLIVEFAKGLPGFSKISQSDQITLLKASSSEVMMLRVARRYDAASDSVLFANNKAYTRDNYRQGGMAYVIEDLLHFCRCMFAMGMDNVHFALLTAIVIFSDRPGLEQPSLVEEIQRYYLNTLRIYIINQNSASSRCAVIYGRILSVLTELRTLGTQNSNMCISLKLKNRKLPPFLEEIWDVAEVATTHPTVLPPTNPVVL
T1 sequence (P19793 1-462 partner): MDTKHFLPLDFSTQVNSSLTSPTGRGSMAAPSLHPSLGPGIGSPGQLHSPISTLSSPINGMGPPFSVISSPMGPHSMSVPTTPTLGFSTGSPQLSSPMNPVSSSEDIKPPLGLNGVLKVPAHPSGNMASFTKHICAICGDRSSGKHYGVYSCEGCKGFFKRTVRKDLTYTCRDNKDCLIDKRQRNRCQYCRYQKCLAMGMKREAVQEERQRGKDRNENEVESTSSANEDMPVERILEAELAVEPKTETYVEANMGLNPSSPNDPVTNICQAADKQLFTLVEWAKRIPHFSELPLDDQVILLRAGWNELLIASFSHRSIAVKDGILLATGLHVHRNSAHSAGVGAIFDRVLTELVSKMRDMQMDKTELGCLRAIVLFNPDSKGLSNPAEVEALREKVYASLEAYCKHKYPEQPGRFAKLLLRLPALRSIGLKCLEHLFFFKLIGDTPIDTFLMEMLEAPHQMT
Method: A synthetic ATG start codon was placed under the control of cytomegalovirus (CVBE) immediate early promoter and flanked by long terminal repeats (LTR). The reporter construct contained six copies of the ecdysone response element (EcRE) binding site placed upstream of LacZ and flanked on both sides with LTR sequences (6×EcRE).
Dilution cloning was used to isolate individual clones. Clones were selected using 450 ug/mL G418 and 100 ng/mL puromycin. Individual clones were evaluated based on their response in the presence and absence of test ligands.
Z3 cells were seeded into 96-well tissue culture plates at a concentration of 2.5×10^3 cells per well and incubated at 37° C. in 5% CO2 for twenty-four hours. Stock solutions of ligands were prepared in DMSO. […] The final concentration of DMSO was maintained at 0.03% in both controls and treatments.
Reporter gene expression was evaluated 48 hours after treatment of cells, β-galactosidase activity was measured using Gal Screen™ bioluminescent reporter gene assay system from Tropix (GSY1000). Fold induction activities were calculated by dividing relative light units (“RLU”) in ligand treated cells with RLU in DMSO treated cells. Luminescence was detected at room temperature using a Dynex MLX microtiter plate luminometer.
(§1) Each assay was conducted in two separate wells, and the two values were averaged. Fold inductions were calculated by dividing relative light units (“RLU”) in ligand treated cells with RLU in DMSO treated cells. EC50s were calculated from dose response data using a three-parameter logistic model.

[1] = biological target: T2, GAL4 DBD-CfEcR(DEF)/VP16AD-MmRXRE (Choristoneura fumiferana, UniProt O77240); assay: 13B3 assay: luciferase reporter gene induction in stable CHO clone 13B3; format: cell-based; conditions: 33/33.3 μM ligand, 48 h, RLU relative to DMSO; for fold induction at 33.3 µM: read-out: Fold Induction Average, 13B3 assay
T2 construct: The wild-type D, E, and F domains from spruce budworm Choristoneura fumiferana EcR (“CfEcR-DEF”)
Method: CHO cells were transiently transfected with transcription cassettes for GAL4 DBD-CfEcR(DEF) and for VP16AD-MmRXRF controlled by SV40e promoters. Stably transfected cells were selected using Hygromycin. Individually isolated CHO cell clones were transiently transfected with a GAL4 RE-luciferase reporter (pFR-Luc, Stratagene, La Jolla, Calif.). The 13B3 clone was selected using Zeocin.
Cells were trypsinized and diluted to a concentration of 2.5×10^4 cells mL. 100 μL of cell suspension was placed in each well of a 96 well plate and incubated at 37° C. under 5% CO2 for 24 h. Ligand stock solutions were prepared in DMSO and diluted 300 fold for all treatments.
Luciferase reporter gene expression was measured 48 h after cell treatment using Bright-Glo™ Luciferase Assay System from Promega (E2650). Luminescence was detected at room temperature using a Dynex MLX microtiter plate luminometer.
as §1

Structure (SMILES)	Fold Induction Average, Z3 assay (Bombyx mori EcR (VBE))	Fold Induction Average, 13B3 assay [1]	fold induction at 33 µM (Bombyx mori EcR (VBE))	fold induction at 33.3 µM [1]
CCOC(=O)CCC(=O)NN1C(c2cccc(C(F)(F)F)c2)=NOC1(C)C [RG-120153]	0.7	0.8		
COc1cccc(C(=O)NN2C(c3cc(C)cc(C)c3)=NOC23CCOCC3)c1C [RG-120086, N-[3-(3,5-dimethyl-phenyl)-1,8-dioxa-2,4-diaza-spiro[4.5]dec-2-en-4-yl]-3-methoxy-2-methyl-benzamide]			112	4
Cc1cc(C)cc(C2=NOC(C)(C)N2NC(=O)c2ccccc2[N+](=O)[O-])c1 [RG-120098]	1.8	0.3		
CCC1(C)ON=C(c2cc(C)cc(C)c2)N1NC(=O)COCc1ccccc1 (stereo not shown) [RG-120050]	3.5	0.9		
CC1(C)ON=C(c2ccc(OC(F)(F)F)cc2)N1NC(=O)COc1ccccc1 [RG-120029]	0.7	1.5		
COc1ccccc1C1=NOC(C)(C)N1NC(=O)COCc1ccccc1 [RG-120018]	0.7	0.8		
CC1(C)ON=C(c2ccc(Cl)cc2)N1NC(=O)COc1ccccc1 [RG-120162]	0.7	0.9		
COc1ccccc1C(=O)NN1C(c2cc(C)cc(C)c2)=NOC1(C)C [RG-120075]	0.7	1.1		
COc1ccccc1C1=NOC(C)(C)N1NC(=O)c1cc2ccccc2s1 [RG-120047]	31.9	973.9		
Cc1cc(C)cc(C2=NOC3(CCCC3)N2NC(=O)COCc2ccccc2)c1 [RG-120052]	4.9	0.7		
Cc1cc(C)cc(C2=NOC(C)(C)N2NC(=O)Nc2ccccc2)c1 [RG-120072, 1-[3-(3,5-Dimethyl-phenyl)-5,5-dimethyl-[1,2,4]oxadiazol-4-yl]-3-phenyl-urea]			1.3	0.6
CC1(C)ON=C(c2ccc(Cl)cc2)N1NC(=O)c1ccco1 [RG-120082]	0.8	0.1		
Cc1cc(C)cc(C2=NOC3(CCOCC3)N2NC(=O)COCc2ccccc2)c1 [RG-120009]	0.8	1.3		
CC1(C)ON=C(c2ccc(Cl)cc2)N1NC(=O)Nc1ccccc1 [RG-120067]	0.5	2.6		
COc1ccccc1C1=NOC(C)(C)N1NC(=O)COc1ccccc1 [RG-120057]	0.8	0.6		
CC1(C)ON=C(c2ccc(Cl)cc2)N1NC(=O)C(F)(F)C(F)(F)Cl [RG-120073]	0.5	0.9		
CC1(C)ON=C(c2cccc(C(F)(F)F)c2)N1NC(=O)c1ccco1 [RG-120070]	0.7	0.4		
COc1ccc(C2=NOC(C)(C)N2NC(=O)c2ccco2)c(OC)c1 [RG-120102]	0.8	0.5		
CC1(C)ON=C(c2ccc(OC(F)(F)F)cc2)N1NC(=O)Nc1ccccc1 [RG-120122]	0.6	0.5		
CC1(C)ON=C(c2ccc3c(c2)OCO3)N1NC(=O)COCc1ccccc1 [RG-120145]	0.5	1.4		
CC1(C)ON=C(c2ccc(OC(F)(F)F)cc2)N1NC(=O)c1ccccc1 [RG-120033]	0.7	0.9		
CC1(C)ON=C(c2ccc3c(c2)OCO3)N1NC(=O)Nc1ccccc1 [RG-120017]	0.9	0.8		
CC1(C)ON=C(c2ccc(Cl)cc2)N1NC(=O)c1cc2ccccc2s1 [RG-120087]	0.4	0.4		

From patent US8669072B2, “Oxadiazoline ligands for modulating the expression of exogenous genes via an ecdysone receptor complex” (Intrexon Corporation, priority 2003, dated 2014)
